Experimental data taken from patent US8748417B2, “Amino-pyrrolidine-azetidine diamides as monoacylglycerol lipase inhibitors” (Janssen Pharmaceutica, NV, priority 2010, dated 2014).
Substitutions are numbered along the chain they refer to.

Columns and labels:
Format in all cases: biochemical
[1] = system: MGL (rat brain homogenate); assay: 2-AG accumulation assay in rat brain homogenate; details: percent of vehicle 2-AG accumulation; for Rat Brain 2AG % VehCntrl (%) @1 μM: compound 1 μM; for Rat Brain 2AG % VehCntrl (%) @10 μM: compound 10 μM
Outline: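 Rat brain homogenate was incubated with compound for 15 min at 37° C., after which CaCl2 was added to a final concentration of 10 mM and incubation continued for 15 min at 37° C. in 5 mL total. Reactions were stopped with 6 mL of 2:1 chloroform/methanol, and 2-AG accumulated in the organic phase was quantified by HPLC/MS.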

[2] = biological target: T1, purified mutant MGL (mut-MGLL 11-313 L179S L186S) (Homo sapiens, UniProt Q99685, L169S/L176S); assay: MGL enzyme activity assay (4MU-B cleavage), mutant MGL; details: mutant MGL 5 nM, 4MU-B 10 μM, 37° C.; read-out: MGL mutant inh IC50
T1 construct: purified mutant MGL (mut-MGLL 11-313 L179S L186S)
T1 sequence (Q99685 1-303 L169S/L176S): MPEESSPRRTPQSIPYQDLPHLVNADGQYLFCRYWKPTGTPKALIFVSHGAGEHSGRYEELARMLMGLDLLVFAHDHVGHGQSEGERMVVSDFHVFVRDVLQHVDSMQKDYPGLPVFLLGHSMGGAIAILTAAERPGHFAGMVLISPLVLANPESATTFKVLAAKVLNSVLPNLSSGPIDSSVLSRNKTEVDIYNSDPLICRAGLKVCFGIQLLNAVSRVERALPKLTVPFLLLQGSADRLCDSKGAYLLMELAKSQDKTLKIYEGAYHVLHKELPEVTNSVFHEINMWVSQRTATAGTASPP
Protocol: All rate-based assays were performed in black 384-well polypropylene PCR microplates (Abgene) in a total volume of 30 μL. Substrate 4-methylumbelliferyl butyrate (4MU-B; Sigma) and either purified mutant MGL (mut-MGLL 11-313 L179S L186S) or purified wild type MGL (wt-MGLL 6H-11-313) were diluted separately into 20 mM PIPES buffer (pH=7.0), containing 150 mM NaCl and 0.001% Tween 20. Compounds of Formula (I) were pre-dispensed (50 nL) into the assay plate using a Cartesian Hummingbird prior to adding 4MU-B (25 μL of 1.2× solution to a final concentration of 10 μM) followed by enzyme (5 μL of a 6× solution to a final concentration of 5 nM) to initiate the reaction. Final compound concentrations ranged from 17 to 0.0003 μM. The fluorescence change due to 4MU-B cleavage was monitored with excitation and emission wavelengths of 335 and 440 nm, respectively, and a bandwidth of 10 nm (Safire^2, Tecan) at 37° C. for 5 min.
The IC50 values for the following compounds were determined using Microsoft Office Excel from a fit of the equation to the concentration-response plot of the fractional activity as a function of inhibitor concentration.

[3] = biological target: T2, purified wild type MGL (wt-MGLL 6H-11-313) (Homo sapiens, UniProt Q99685); assay: MGL enzyme activity assay (4MU-B cleavage), wild type MGL; details: wild type MGL 5 nM, 4MU-B 10 μM, 37° C.; read-out: MGL wild type inh IC50
T2 construct: purified wild type MGL (wt-MGLL 6H-11-313)
T2 sequence (Q99685 1-303): T1 sequence (Q99685 1-303 L169S/L176S) with S169L, S176L
Outline: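 Enzyme in 20 mM PIPES pH 7.0, 150 mM NaCl, 0.001% Tween 20 with 4MU-B at 10 μM final and MGL at 5 nM final; compounds 17 to 0.0003 μM final, enzyme added last. Fluorescence (ex 335/em 440 nm) followed at 37° C for 5 min; IC50 from fit of fractional activity versus inhibitor concentration.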

Row | Structure (SMILES) | IC50 [2] | IC50 [3] | Rat Brain 2AG % VehCntrl (%) @1 μM [1] | Rat Brain 2AG % VehCntrl (%) @10 μM [1]
1 | O=C(c1ccccc1)N1CC[C@H](NC2CN(C(=O)c3cc4cc(-c5cccc(C(F)(F)F)c5)ccc4s3)C2)C1 [Cpd 51, (3S)-1-(Phenylcarbonyl)-N-[1-({5-[3-(trifluoromethyl)phenyl]-1-benzothiophen-2-yl}carbonyl)azetidin-3-yl]pyrrolidin-3-amine] | 0.229 µM | < 0.005 µM | – | –
2 | O=C(c1ccc2c(-c3ccccc3C(F)(F)F)cccc2c1)N1CC(N[C@H]2CCN(C(=O)c3ccccc3)C2)C1 [Cpd 24, (3S)-1-(Phenylcarbonyl)-N-[1-({5-[2-(trifluoromethyl)phenyl]naphthalen-2-yl}carbonyl)azetidin-3-yl]pyrrolidin-3-amine] | 0.0085 µM | – | 706% | –
3 | O=C(c1ccc2c(-c3ccccc3)cccc2c1)N1CC(N[C@H]2CCN(C(=O)c3ccccc3)C2)C1 [Cpd 23, (3S)-1-(Phenylcarbonyl)-N-{1-[(5-phenylnaphthalen-2-yl)carbonyl]azetidin-3-yl}pyrrolidin-3-amine] | 0.0149 µM | – | 293% | –
4 | O=C(c1ccccc1)N1CC[C@H](NC2CN(C(=O)c3cc4cc(-c5ccc(C(F)(F)F)cc5)ccc4s3)C2)C1 [Cpd 52, (3S)-1-(Phenylcarbonyl)-N-[1-({5-[4-(trifluoromethyl)phenyl]-1-benzothiophen-2-yl}carbonyl)azetidin-3-yl]pyrrolidin-3-amine] | 0.226 µM | 0.0066 µM | – | –
5 | O=C(c1ccc(C(F)(F)c2ccccc2)cc1)N1CC(N[C@H]2CCN(C(=O)c3ccccc3)C2)C1 [Cpd 73, (3S)-N-[1-({4-[Difluoro(phenyl)methyl]phenyl}carbonyl)azetidin-3-yl]-1-(phenylcarbonyl)pyrrolidin-3-amine] | 0.0158 µM | – | 441% | –
6 | CN(C1CN(C(=O)c2ccc(Cc3ccccc3)cc2)C1)[C@H]1CCN(C(=O)c2ccccc2)C1 [Cpd 14, (3S)-N-{1-[(4-Benzylphenyl)carbonyl]azetidin-3-yl}-N-methyl-1-(phenylcarbonyl) pyrrolidin-3-amine] | 0.005 µM | – | 484% | –
7 | O=C(c1ccc2c(Br)cccc2c1)N1CC(N(O)[C@H]2CCN(C(=O)c3ccccc3)C2)C1 [Cpd 34, (3S)-N-{1-[(5-Bromonaphthalen-2-yl)carbonyl]azetidin-3-yl}-N-hydroxy-1-(phenylcarbonyl)pyrrolidin-3-amine] | 0.0132 µM | – | 645% | –
8 | O=C(c1ccc(-c2ccccc2)cc1)N1CC(NC2CN(C(=O)c3ccccc3)CC2F)C1 (stereo not shown) [Cpd 58, N-[1-(Biphenyl-4-ylcarbonyl)azetidin-3-yl]-4-fluoro-1-(phenylcarbonyl)pyrrolidin-3-amine] | 0.033 µM | 0.464 µM | – | –
9 | O=C(c1ccc(Cc2ccccc2)cc1)N1CC(N[C@H]2CCN(C(=O)c3ccsc3)C2)C1 [Cpd 5, (3S)-N-{1-[(4-Benzylphenyl)carbonyl]azetidin-3-yl}-1-(thiophen-3-ylcarbonyl)pyrrolidin-3-amine] | < 0.005 µM | – | – | 962%
10 | O=C(c1ccc(Cc2ccccc2)cc1)N1CC(N[C@H]2CCN(C(=O)c3nccs3)C2)C1 [Cpd 3, (3S)-N-{1-[(4-Benzylphenyl)carbonyl]azetidin-3-yl}-1-(1,3-thiazol-2-ylcarbonyl)pyrrolidin-3-amine] | 0.0218 µM | – | – | 844%
11 | O=C(c1ccc(-c2cc(Cl)cc(Cl)c2)cc1)N1CC(N[C@H]2CCN(C(=O)c3ccccc3)C2)C1 [Cpd 17, (3S)-N-{1-[(3′,5′-Dichlorobiphenyl-4-yl)carbonyl]azetidin-3-yl}-1-(phenylcarbonyl)pyrrolidin-3-amine] | 0.041 µM | – | 441% | –

Further lines, with some results ahead:

Row | IC50 [2] | IC50 [3] | Structure (SMILES) | Rat Brain 2AG % VehCntrl (%) @1 μM [1] | Rat Brain 2AG % VehCntrl (%) @10 μM [1]
12 | 0.0477 µM | – | Cc1c(C(=O)N2CC(N[C@H]3CCN(C(=O)c4ccccc4)C3)C2)sc2ccc(Cl)cc12 [Cpd 37, (3S)-N-{1-[(5-Chloro-3-methyl-1-benzothiophen-2-yl)carbonyl]azetidin-3-yl}-1-(phenylcarbonyl)pyrrolidin-3-amine] | 381% | –
13 | 0.0335 µM | – | O=C(c1ccc2c(Br)cccc2c1)N1CC(N[C@H]2CCN(C(=O)c3ccccc3)C2)C1 [Cpd 22, (3S)-N-{1-[(5-Bromonaphthalen-2-yl)carbonyl]azetidin-3-yl}-1-(phenylcarbonyl)pyrrolidin-3-amine] | 223% | –
14 | 0.0967 µM | – | O=C(c1ccc2c(c1)Cc1ccccc1-2)N1CC(N[C@H]2CCN(C(=O)c3ccccc3)C2)C1 [Cpd 27, (3S)-N-[1-(9H-Fluoren-2-ylcarbonyl)azetidin-3-yl]-1-(phenylcarbonyl)pyrrolidin-3-amine] | 125% | –
15 | 0.0804 µM | – | O=C(c1ccccc1)N1CC[C@H](NC2CN(C(=O)c3cc4ccc(C(F)(F)F)cc4s3)C2)C1 [Cpd 20, (3S)-1-(Phenylcarbonyl)-N-(1-{[6-(trifluoromethyl)-1-benzothiophen-2-yl]carbonyl}azetidin-3-yl)pyrrolidin-3-amine] | 304% | –
16 | 0.005 µM | – | O=C(c1ccccc1)N1CC[C@H](NC2CN(C(=O)c3sc4cc(Br)ccc4c3Cl)C2)C1 [Cpd 21, (3S)-N-{1-[(6-Bromo-3-chloro-1-benzothiophen-2-yl)carbonyl]azetidin-3-yl}-1-(phenylcarbonyl)pyrrolidin-3-amine] | 596% | –
17 | 0.357 µM | 0.48 µM | O=C(c1ccccc1)N1CC[C@H](NC2CN(C(=O)c3cc4cc(Br)ccc4s3)C2)C1 [Cpd 49, (3S)-N-{1-[(5-Bromo-1-benzothiophen-2-yl)carbonyl]azetidin-3-yl}-1-(phenylcarbonyl)pyrrolidin-3-amine] | – | –
18 | 0.0845 µM | – | Cc1c(C(=O)N2CC(N[C@H]3CCN(C(=O)c4ccccc4)C3)C2)sc2ccccc12 [Cpd 68, (3S)-N-{1-[(3-Methyl-1-benzothiophen-2-yl)carbonyl]azetidin-3-yl}-1-(phenylcarbonyl)pyrrolidin-3-amine] | 161% | –
19 | 0.012 µM | – | O=C(c1ccc(Cc2ccccc2)cc1)N1CC(N[C@H]2CCN(C(=O)c3ccccc3)C2)C1 [Cpd 4, (3S)-N-{1-[(4-Benzylphenyl)carbonyl]azetidin-3-yl}-1-(phenylcarbonyl)pyrrolidin-3-amine] | – | 1033%
20 | < 0.005 µM | – | O=C(c1ccccc1)N1CC[C@H](NC2CN(C(=O)c3sc4cc(C(F)(F)F)ccc4c3Cl)C2)C1 [Cpd 28, (3S)-N-(1-{[3-Chloro-6-(trifluoromethyl)-1-benzothiophen-2-yl]carbonyl}azetidin-3-yl)-1-(phenylcarbonyl)pyrrolidin-3-amine] | 511% | –
21 | 0.0255 µM | – | O=C(c1ccccc1)N1CC[C@H](NC2CN(C(=O)c3sc4cc(F)ccc4c3C3CC3)C2)C1 [Cpd 70, (3S)-N-{1-[(3-Cyclopropyl-6-fluoro-1-benzothiophen-2-yl)carbonyl]azetidin-3-yl}-1-(phenylcarbonyl)pyrrolidin-3-amine] | 217% | –
22 | 0.214 µM | – | O=C(c1ccccc1)N1CC[C@H](NC2CN(C(=O)c3sc4ccccc4c3C3CC3)C2)C1 [Cpd 66, (3S)-N-{1-[(3-Cyclopropyl-1-benzothiophen-2-yl)carbonyl]azetidin-3-yl}-1-(phenylcarbonyl)pyrrolidin-3-amine] | – | –
